In patent US9505728B2, “Triazolone compounds and uses thereof” (INCEPTION 2, INC., priority 2012, dated 2016) one finds IC50 data, which are given here for one compound.

One assay concerns the target T1, PPAR beta/delta (Homo sapiens, UniProt Q03181).
T1 construct: host or cells: engineered reporter cells of the kit
T1 sequence (Q03181 1-441): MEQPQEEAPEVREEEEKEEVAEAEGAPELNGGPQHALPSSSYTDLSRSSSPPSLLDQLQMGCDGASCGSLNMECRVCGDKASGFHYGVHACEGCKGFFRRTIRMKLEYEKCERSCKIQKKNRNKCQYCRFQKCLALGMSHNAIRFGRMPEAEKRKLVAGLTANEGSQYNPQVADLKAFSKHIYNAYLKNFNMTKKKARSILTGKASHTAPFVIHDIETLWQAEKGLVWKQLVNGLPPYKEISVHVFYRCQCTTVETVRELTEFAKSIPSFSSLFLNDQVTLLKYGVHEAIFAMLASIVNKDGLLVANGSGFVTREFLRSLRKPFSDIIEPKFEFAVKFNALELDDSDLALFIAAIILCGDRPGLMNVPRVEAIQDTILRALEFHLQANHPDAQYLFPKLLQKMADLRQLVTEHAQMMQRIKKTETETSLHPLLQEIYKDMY
Put plainly: Target selectivity counterscreen, PPAR β/δ reporter assay. Format: cell-based. The note with it: receptor agonist at ~EC80. The method, then: (§1) Target Selectivity Assays
(§2) To determine species selectivity, a Mouse PPARα Reporter Assay System was used (Indigo Biosciences, Cat. #M00111). Activity of test compounds to antagonize or agonize other isoforms of human PPAR, for example β/δ and γ, were assessed using the corresponding kits from Indigo Biosciences (Cat. #IB00121 and #IB00101, respectively). In addition to PPAR activity, compounds were also screened for activity against other nuclear hormone receptors including Estrogen Receptor β, Glucocorticoid Receptor and Thyroid Receptor β using commercially available kits (Indigo Biosciences, Cat. #IB00411, IB00201 and IB01101, respectively). Each assay system from Indigo Biosciences uses technology analogous to the human PPARα kit, with the variance being that the cells used for each assay were engineered to over-express the receptor of interest. In addition, the appropriate receptor agonist (included with each kit) was used at ˜EC80 for assays in which antagonist potency was being assessed.

A further assay deals with T2, Thyroid Receptor β (Homo sapiens, UniProt P10828).
T2 construct: host or cells: engineered reporter cells of the kit
T2 sequence (P10828 1-461): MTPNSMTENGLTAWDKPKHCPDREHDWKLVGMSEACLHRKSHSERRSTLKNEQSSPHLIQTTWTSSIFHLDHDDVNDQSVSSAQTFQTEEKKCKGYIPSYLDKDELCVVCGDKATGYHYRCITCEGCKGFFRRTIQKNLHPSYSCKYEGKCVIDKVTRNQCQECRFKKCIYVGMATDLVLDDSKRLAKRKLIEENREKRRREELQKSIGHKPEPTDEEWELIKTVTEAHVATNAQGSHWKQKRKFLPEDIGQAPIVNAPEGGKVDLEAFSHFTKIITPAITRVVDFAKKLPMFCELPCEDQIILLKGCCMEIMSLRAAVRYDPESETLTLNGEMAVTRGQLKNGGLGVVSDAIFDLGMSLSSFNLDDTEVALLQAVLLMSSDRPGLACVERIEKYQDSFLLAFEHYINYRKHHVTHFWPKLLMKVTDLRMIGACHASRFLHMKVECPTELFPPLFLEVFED
Put plainly: Target selectivity counterscreen, Thyroid Receptor β reporter assay. In kind it is cell-based. The note with it: receptor agonist at ~EC80. The method, then: as §1, §2
On the technique in general: A counterscreen serves to expose hits that act by an unwanted route or on another target.

Bounds are passed on as bounds.

Regarding `CCn1c(CCCc2ccc(-c3ccc(NS(=O)(=O)c4ccccc4)cn3)cc2)nn(Cc2ccc(C(C)(C)C)cc2)c1=O` [Example 10, N-(6-(4-(3-(1-(4-(tert-Butyl)benzyl)-4-ethyl-5-oxo-4,5-dihydro-1H-1,2,4-triazol-3-yl)propyl)phenyl)pyridin-3-yl)benzenesulfonamide], the IC50 (as a rule, the point on the concentration scale where inhibition reaches its midpoint) is 2600 nM on PPAR beta/delta and over 10000 nM at Thyroid Receptor β.
